Data on ten compounds can be found in patent US4044043A, “Derivatives of 9-oxo-13-trans-prostenoic acid esters” (American Cyanamid Company, priority 1975, dated 1977).

The subject of experiment [1] is Trichophyton rubrum E 97. The experiment is described as follows: agar-dilution streak-plate antimicrobial assay. The class given is cell-based. To be noted: E97, read-out: Minimal inhibitory conc. (5). A digest of the protocol:
(§1)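 Complete absence of visible growth on the streak defines the MIC, given in µg/ml. Each compound, made up at 2.5 mg/ml and diluted two-fold, is incorporated 1:10 into organism-appropriate nutrient agar before loop inoculation and incubation.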

The test system of experiment [2] is Trichophyton tonsurans NIH 662. Nature of the experiment: agar-dilution streak-plate antimicrobial assay. The class given is cell-based. The note with it: NIH662, read-out: Minimal inhibitory conc. (3). A digest of the protocol:
as §1

Experiment [3] concerns Trichophyton mentagrophytes E 11. The experiment is described as follows: agar-dilution streak-plate antimicrobial assay. The class given is cell-based. To be noted: E11, read-out: Minimal inhibitory conc. (4). Summed up: as §1
The subject of experiment [4] is Mycobacterium smegmatis ATCC 606. The experiment is described as follows: agar-dilution streak-plate antimicrobial assay. The class given is cell-based. To be noted: Mycolicibacterium smegmatis, ATCC606, read-out: Minimal inhibitory conc. (6). Summed up: as §1
Experiment [5] relates to diastolic blood pressure. Nature of the experiment: Prostaglandin-like hypotensive activity in anesthetized rats (minimal dose for about 10 mm. decrease in diastolic blood pressure). The class given is in vivo, Male Wistar strain rats. The note with it: Rattus norvegicus; intravenous; decrease of about 10 mm. in diastolic blood pressure. A digest of the protocol: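 Male Wistar rats (~250 g), pentobarbital 30 mg./kg. i.v. and hexamethonium 2 mg./kg. i.v., iliac artery cannulated for blood pressure. Compounds in saline-Tween 80 given i.v. at 0.1–10.0 mg./kg.; value is the minimal dose giving ~10 mm. drop in diastolic pressure.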

Experiment [6] relates to Microsporum gypseum ATCC 14683. Nature of the experiment: agar-dilution streak-plate antimicrobial assay. The class given is cell-based. The note with it: Nannizzia gypsea, ATCC14683, read-out: Minimal inhibitory conc. (2). Summed up: as §1
For experiment [7], the system named is Microsporum canis ATCC 10214. The experiment is described as follows: agar-dilution streak-plate antimicrobial assay. The class given is cell-based. The note with it: ATCC10214, read-out: Minimal inhibitory conc. (1). Summed up: as §1
Experiment [8] concerns gastric acid secretion. The experiment is described as follows: Inhibition of basal Gastric Acid Secretion (Acute Gastric Fistula Rat). The class given is in vivo, Female Sprague-Dawley rats. To be noted: 2 h, 10 mg./kg. intraduodenal, B: 120 minute collection. Here is the method: Inhibition of basal gastric acid secretion was determined in the acute gastric fistula rat as follows. Female Sprague-Dawley rats (Charles River Laboratories) weighing 140-160 grams are fasted in individual cages for 18-24 hours. The rats are then lightly anesthetized with ether and their front teeth extracted to avoid destruction of the plastic cannula. A midline incision is then made and the stomach and duodenum exposed. A flanged polyvinyl tube is inserted into the fundic portion of the stomach and secured with a purse string suture line using 4-0 Mersilene. The rat is then dosed by injection of the compound into the duodenum (1.0 ml. per 100 gram body weight). After dosing, the abdominal wall and skin are closed using metal wound clips. The rat is replaced in a cage containing a longitudinal slit to allow the polyvinyl tube to hang freely. An 8 ml. plastic collecting tube is attached to the flanged cannula and hangs freely below the cage. The first 30 minute sample is discarded designating this time as zero. The collecting tube is attached again and samples removed at the end of 60 and 120 minutes. Those samples are referred to as "A" and "B" in the table. The hourly samples are then transferred to a 15 ml. centrifuge tube and centrifuged for 5-10 minutes. Total and sediment volume are then recorded with the supernatant volume being used as volume of secretion. A 1 ml. or less aliquot is then removed and placed in a 50 ml. beaker containing 10 ml. of distilled water. This sample is then titrated using 0.01N NaOH to pH 7.0 using a Beckman zeromatic pH meter. Volume, titratable acidity (meq/L) and total acid output (μ eq/hour) are recorded. Percent inhibition is determined by comparison with the appropriate control. Groups of three rats were used. All compounds are administered in vehicle (0.5% methocel, 0.4% Tween 80, saline) at a constant volume of 1 ml./100 gram rat. Samples were sonicated with care to prevent overheating.

Experiment [9] relates to Staphylococcus aureus Rose ATCC 14154. Nature of the experiment: agar-dilution streak-plate antimicrobial assay. The class given is cell-based. To be noted: ATCC14154, read-out: Minimal inhibitory conc. (7). A digest of the protocol: as §1
Experiment [10] has as its system Streptococcus pyogenes C 203. Nature of the experiment: agar-dilution streak-plate antimicrobial assay. The class given is cell-based. The note with it: C203, read-out: Minimal inhibitory conc. (8). Summed up:
as §1

The test system of experiment [11] is dl-PGE1-induced contraction of gerbil colon. Nature of the experiment: Inhibition of dl-PGE1-Induced Contraction of Gerbil Colon (prostaglandin antagonist action). The class given is cell-based, gerbils (Meriones unguiculatus). The note with it: Meriones unguiculatus, 1 min; sub-maximal challenge, 20 ng./ml. dl-PGE1; 50% inhibition of maximum response; read-out: ID50 vs. 20 ng. of PGE1/ml. A digest of the protocol:
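Ascending colon from male gerbils, held in De Jalon's solution at 37 °C under 95% O2/5% CO2 with 0.5 g resting tension, contraction recorded isometrically. 1 min compound exposure, then 1 min dl-PGE1 at 200 ng/ml (maximal) or 20 ng/ml (sub-maximal). Approximate ID50 taken from a concentration series against the preceding agonist-only cycle.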

For experiment [12], the system named is bronchospasms elicited by 5-hydroxytryptamine. The experiment is described as follows: Bronchodilator Activity (Konzett Assay) against 5-hydroxytryptamine. The class given is in vivo, guinea pigs. The note with it: Cavia porcellus; three logarithmic cumulative intravenous doses. Summed up: (§2)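 Guinea pigs given intravenous spasmogen (5-hydroxytryptamine, histamine or acetylcholine) per Konzett procedure. ED50 derived from three logarithmic cumulative intravenous doses of test compound.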

The test system of experiment [13] is bronchospasms elicited by acetylcholine. The experiment is described as follows: Bronchodilator Activity (Konzett Assay) against acetylcholine. The class given is in vivo, guinea pigs. To be noted: Cavia porcellus; three logarithmic cumulative intravenous doses. A digest of the protocol: as §2
Experiment [14] deals with bronchospasms elicited by histamine. The experiment is described as follows: Bronchodilator Activity (Konzett Assay) against histamine. To be noted: Cavia porcellus; three logarithmic cumulative intravenous doses. The class given is in vivo, guinea pigs. Summed up:
as §2

Converted amounts (≈) assume the structure as drawn. Like-named read-outs stand apart in the source and are kept apart here. A value given as a limit tells only on which side of the number the result lay.

For the compound `CCOC(=O)CCCCCC[C@H]1C(=O)CC[C@@H]1/C=C/CCCCCCCl` (relative stereo) [ethyl 20-chloro-9-oxo-13-trans-prostenoate], the MIC in [1], in experiment [2], in experiment [3] and in experiment [4] was 250 µg/mL (≈ 649 µM) throughout. The same compound showed a minimal effective dose in experiment [5] of 0.5 mg/kg.
As for `CCCCCC/C=C/[C@@H]1CCC(=O)[C@H]1CC(=O)O` (relative stereo) [9-oxo-3,4,5,6,7-pentanor-13-trans-prostenoic acid], the MIC in [1] turned out to be 250 µg/mL (≈ 991 µM); in experiment [2] it was 125 µg/mL (≈ 495 µM); in experiment [6], 250 µg/mL (≈ 991 µM); in experiment [3], 250 µg/mL (≈ 991 µM); in [7], 250 µg/mL (≈ 991 µM). In experiment [5], this compound displayed a minimal effective dose of 2 mg/kg. Besides, the inhibition in vivo at 10 mg/kg in experiment [8] (read-out: % Inhibition Total Acid Output) amounted to 64%; in [8] (read-out: % Inhibition Total Acidity), 48%.
For the compound `CCOC(=O)CCCCCC[C@H]1C(=O)CC[C@@H]1/C=C/CCC[S+]([O-])CC` (stereo partly drawn) [ethyl 9-oxo-18-oxythia-13-trans-prostenoate], the MIC in [1], in [2], in [3] and in experiment [4] was 250 µg/mL (≈ 650 µM) throughout. Moreover, the minimal effective dose in experiment [5] is 2 mg/kg.
Regarding `CCCCCC/C=C/[C@@H]1CCC(=O)[C@H]1CCCCCCC(=O)OCCN(C)C` (relative stereo) [β-dimethylaminoethyl 9-oxo-13-trans-prostenoate], the MIC in [9] was 50 µg/mL (≈ 127 µM); in experiment [2], 250 µg/mL (≈ 635 µM); in experiment [7], 250 µg/mL (≈ 635 µM); in [4], 10 µg/mL (≈ 25.4 µM); in experiment [10], 10 µg/mL (≈ 25.4 µM). Besides, the minimal effective dose in [5] lay within 0.5 to 2 mg/kg.
On to `CCOC(=O)CCCCCC[C@H]1C(=O)CC[C@@H]1/C=C/C(C)C` (relative stereo) [ethyl 15-methyl-9-oxo-17,18,19,20-tetranor-13-trans-prostenoate], for which the MIC in experiment [1] was 250 µg/mL (≈ 810 µM); in experiment [2] it was 250 µg/mL (≈ 810 µM); in [6], 250 µg/mL (≈ 810 µM); in [3], 250 µg/mL (≈ 810 µM); in experiment [7], 250 µg/mL (≈ 810 µM); in experiment [4], 62 µg/mL (≈ 201 µM).
Regarding `CCCCCC/C=C/[C@H]1CCC(O)[C@@H]1CCCCCCC(=O)O` (stereo partly drawn) [9-hydroxy-13-trans-prostenoic acid, 9α- and 9β-hydroxy-13-trans-prostenoic acid], the MIC in experiment [9] was 50 µg/mL (≈ 154 µM); in experiment [2], 50 µg/mL (≈ 154 µM); in [6] it was 25 µg/mL (≈ 77 µM); in experiment [3] it was 50 µg/mL (≈ 154 µM); in experiment [7], 50 µg/mL (≈ 154 µM); in experiment [4], 25 µg/mL (≈ 77 µM). Besides, the MIC in experiment [10] was 25 µg/mL (≈ 77 µM). This compound also yielded a minimal effective dose in [5] of 2 mg/kg.
Take `CCCCCC/C=C/[C@H]1CCC(=O)[C@@H]1CCCCC(=O)O` (relative stereo) [9-oxo-6,7-dinor-13-trans-prostenoic acid]: the MIC in experiment [9], in experiment [1], in [2], in experiment [6], in experiment [3] and in experiment [7] was 250 µg/mL (≈ 849 µM) each time. In addition, the MIC in [4] and in experiment [10] was 250 µg/mL (≈ 849 µM) throughout. For the same compound, the IC50 in [11] was in the range of 10 to 20 µg/mL (≈ 34 to 67.9 µM). In experiment [5], this compound returned a minimal effective dose of 2 mg/kg.
As to `O=C(O)CCCCCCC1C(O)CCC1C=CCCCCl` (stereo not drawn) [9-hydroxy-20-chloro-17,18,19-trinor-13-trans-prostenoic acid], the MIC in experiment [2] came out at 250 µg/mL (≈ 789 µM); in experiment [6], 250 µg/mL (≈ 789 µM); in [3] it was 250 µg/mL (≈ 789 µM); in [10], 62 µg/mL (≈ 196 µM). The ED50 in experiment [12] is 17.9 mg/kg; in experiment [13], more than 10 mg/kg; in experiment [14] it was more than 10 mg/kg. This compound also showed a minimal effective dose in experiment [5] of 2 mg/kg.
Turning to `CCCCCCC=CC1CCC(O)C1CCCCC(=O)O` (stereo not drawn) [9-hydroxy-6,7-dinor-13-trans-prostenoic acid], the MIC in [9] was 250 µg/mL (≈ 843 µM); in experiment [1] it was 250 µg/mL (≈ 843 µM); in experiment [2], 62 µg/mL (≈ 209 µM); in [6], 62 µg/mL (≈ 209 µM); in experiment [3], 62 µg/mL (≈ 209 µM); in experiment [7] it was 250 µg/mL (≈ 843 µM). In addition, the MIC in [4] and in experiment [10] was 62 µg/mL (≈ 209 µM) throughout. The ED50 in experiment [12] was more than 10 mg/kg; in [13], more than 10 mg/kg; in experiment [14] it was 6.06 mg/kg. Further, in [11], the IC50 lay in the range of 10 to 12 µg/mL (≈ 33.7 to 40.5 µM). Moreover, the minimal effective dose in experiment [5] was 2 mg/kg.
On to `CC(C)CCC=CC1CCC(O)C1CCCCCCC(=O)O` (stereo not drawn) [9-hydroxy-17-methyl-18,19-dinor-13-trans-prostenoic acid], for which the MIC was determined as 125 µg/mL (≈ 403 µM) in [9]; 250 µg/mL (≈ 805 µM) in experiment [1]; 62 µg/mL (≈ 200 µM) in experiment [2]; 62 µg/mL (≈ 200 µM) in experiment [6]; 62 µg/mL (≈ 200 µM) in [3]; 62 µg/mL (≈ 200 µM) in [4]. Moreover, the MIC in experiment [10] turned out to be 25 µg/mL (≈ 80.5 µM). The IC50 in experiment [11] lay in the range of 5 to 10 µg/mL (≈ 16.1 to 32.2 µM). In [5], this compound showed a minimal effective dose of 0.2 to 2 mg/kg.

A word on the minimal effective dose: it is the lowest level tested that produced the effect sought. The low end stands for an effect from little substance, the high end for a need for much substance. A word on the ED50: it is the dose at which the effect has come halfway, by size or by number of responders.
